From patent US9522163B2, “Methods of treating hepatitis” (priority 2002, dated 2016) come the findings set out here.

Assay [1] concerns iNOS. Kind of assay: iNOS promoter luciferase reporter assay in hepatocytes. The class given is cell-based. To be noted: CO 250 ppm. The procedure:
In some experiments, gene transfer of an IκBα superrepressor (Hellerbrand et al., Hepatology 27:1285-1295 (1998)) or β-galactosidase using adenoviral vectors (10 pfu/cell) was performed 12 hours prior to TNF-α/ActD treatment. NF-κB activation was evaluated using a luciferase reporter assay as described in Chow et al. (J. Biol. Chem. 274: 10689-10692 (1999)). Briefly, hepatocytes were co-transfected with NF-κB reporter constructs (pGL3-kappaβ luciferase, 100 ng/well; and pIEP-Lac-z 0.5 μg/well) using Lipofectin™ (Invitrogen, Carlsbad, Calif.) as instructed by the manufacturer. Evaluation of iNOS expression was performed using a luciferase reporter assay as described in Lowenstein et al. (Proc. Natl. Acad. Sci. U.S.A 90: 9730-9734 (1993)). Briefly, hepatocytes were co-transfected with iNOS promoter reporter constructs (pXP2; 1 μg/well) and pIEP-LacZ (0.5 μg/well) as described above.
Hepatocytes were transfected with plasmids as described above and treated with various stimuli 24 hours after transfection. Luciferase activity (reported as arbitrary units; A.U.) was assayed 6 hours after initiation of treatment, using a luciferase assay kit (Promega, Madison, Wis.) and a Berthold Luminometer. Results were corrected for transfection efficiency and protein concentration. […]
In general terms: In a reporter assay the amount or activity of a reporter protein is the signal.

The test system of assay [2] is TNF-α/D-gal-induced liver injury. The procedure: Male C57BL/6J ([…], Bar Harbor, Me.), 8-12-wk-old inos^−/− mice and wild type littermates (bred/maintained at the University of Pittsburgh) were used for in vivo experiments.
10 mg/kg subcutaneously (s.c.), Alexis Biochem., San Diego, Calif.) or cobalt protoporphyrin (CoPP, 5 mg/kg, intraperitoneally (i.p.), Frontier Scientific, Logan, Utah). […] Where indicated, acetaminophen (Sigma Chem. Co.; St Louis, Mo.) was administered (500 mg/kg, i.p.).
A CO analyzer (Interscan, Chatsworth, Calif.) was used to measure CO levels continuously in the chamber. CO concentrations were maintained at 250 ppm at all times. Mice were placed in the exposure chamber as required.
Whether HO-1 is protective against acute hepatic failure was investigated. Cobalt protoporphyrin (5 mg/kg, i.p.) was administered to male C57BL/6J mice. Twenty-four hours later, TNF-α/D-gal (0.3 μg/8 mg/mouse, i.p., respectively) was administered to the mice. Serum alanine aminotransferase (ALT) levels in the mice were measured 8 hours after administration of TNF-α/D-gal.
After receiving TNF-α/D-gal, mice were returned to the CO exposure chamber and their serum was analyzed for ALT levels 6-8 hr later.
To generate the data presented in FIGS. 11A-11H, liver samples from mice treated with TNF-α/D-gal in the presence and absence of CO (250 ppm) for 8 hr were sectioned and stained for hematoxylin & eosin (H&E), activated caspase 3 (as indicated by an increase in red intensity), and for TUNEL positive cells (as demarcated by the increased green cellular staining; a marker of cell death). Nuclei stained blue.
L-NIL was administered 2 hr prior to CO. CO-treated animals were then pre-treated (250 ppm) for 1 hr prior to TNF-α/D-gal.
VP was selectively designed to deliver NO directly to the liver. One hour after the initial VP dose, the animals were exposed to CO for 1 hr prior to administration of TNF-α/D-gal (see above). Serum ALT levels were determined 6-8 hr later.
These mice and inos^−/− mice were then administered CoPP. L-NIL was maintained in the water throughout the experiment. Control and inos^−/− mice received normal drinking water. Twenty-four hr after administration of CoPP, TNF-α/D-gal was administered and serum ALT determined 6-8 hr later.

Assay [3] has as its system human primary hepatocytes. Kind of assay: TNF-α/ActD-induced cell death in human hepatocytes. Format: cell-based. As to conditions: exposure to CO. The procedure: Cells were treated with TNF-α (10 ng/ml) and actinomycin-D (Act-D; 200 ng/ml, Sigma Chemical Co. St. Louis, Mo.) to induce cell death.
To generate the data presented in FIG. 3, human primary hepatocytes obtained from a donor liver resection were treated with CO and TNF-α/ActD as described above.

Assay [4] relates to HO-1. Kind of assay: Liver HO-1 expression (immunoblot). The class given is in vivo, mice. The method, then: (§1) Western blot analysis was performed on primary hepatocytes in culture or from liver homogenates with antibodies to iNOS (Transduction Laboratories, Lexington, Ky.; 1:1000), HO-1 (Calbiochem; 1:2000), or β-actin (Sigma Chemical; 1:5000). Thirty μg protein in cell culture experiments or 100 μg protein from liver homogenates was loaded per well for SDS-PAGE.
To assess the role of iNOS on TNF-α/D-gal-induced HO-1 expression in the liver (data presented in FIG. 16), mice were administered L-NIL (5 mg/kg, i.p.) 2 hr prior to pre-treatment with CO (250 ppm) and every 2 hr thereafter. Control mice received L-NIL and remained in room air.
For orientation: Immunoblotting shows a protein as a band on a membrane.

In assay [5] the test system is iNOS. Kind of assay: iNOS protein immunoblot in hepatocytes. The class given is cell-based. As to conditions: TNF-α/ActD 6-8 hr in presence of CO 250 ppm vs TNF-α alone. The method, then:
as §1
To generate the data in FIG. 8, expression of iNOS protein was evaluated using immunoblotting techniques. Briefly, cell extracts from hepatocytes were treated with TNF-α/ActD for 6-8 hr in the presence and absence of CO (250 ppm). Control cells received air or CO alone.

The test system of assay [6] is acetaminophen-induced liver injury. Kind of assay: Acetaminophen (APAP)-induced hepatitis model. Format: in vivo, mice. The procedure: The animals were exposed to CO at a concentration of 250 ppm. […] Mice were placed in the exposure chamber as required.
To generate the data in FIG. 21, Male C57BL/6J mice were exposed to CO (250 ppm) either 1 hr prior or 4 hr post administration of APAP (500 mg/kg, i.p.). The mice were then maintained in CO for the duration of the experiment. Serum ALT levels were determined 20 hr after APAP administration. Control mice received APAP and were maintained in air. This protocol was designed to allow hepatitis to develop for four hours before administering CO.

Setting [7] is: CO 250 ppm for 8 hr, TNF-α/D-gal.

Regarding `[C-]#[O+]` [CO, carbon monoxide], the “iNOS luciferase reporter activity” value in assay [1] was “highly significant increase in activity”. In addition, the “TNF-α/D-gal-induced liver damage by H&E staining” value in assay [2] (CO 250 ppm for 8 hr) is recorded as “markedly reduced”. For the same compound, in assay [2] (setting [7]), the “Staining of activated caspase-3 in liver” value is given as “less staining” and the “TUNEL positive cells in liver” value is “fewer TUNEL positive cells”. The “Serum ALT lower than in air-exposed mice” value in assay [2] (CO 250 ppm, 1 hr pre-treatment and continued, ALT 6-8 hr after TNF-α/D-gal) came to 74%. Besides, the “Protection against liver damage (serum ALT, histopathology) in absence of iNOS function/expression” value in assay [2] (CO 250 ppm, inos−/− mice and wild type mice treated with L-NIL 5 mg/kg i.p. every two hours) is “unable to protect against liver damage”. The TNF-α induced apoptosis entry in assay [3] is listed as “inhibited TNF-α induced apoptosis”. In assay [4] (CO 250 ppm with L-NIL 5 mg/kg i.p. every 2 hr), the “Liver HO-1 expression when iNOS was inhibited” value is on record as “unable to induce expression”. In assay [4] (CO 250 ppm, presence and absence of TNF-α/D-gal), the “Liver HO-1 expression” value is on record as “significant increase”. For the same compound, the iNOS protein entry in assay [5] was “markedly increased”. Further, in assay [6] (CO 250 ppm 1 hr prior to APAP), the “Protection with CO pre-treatment prior to APAP compared with post-treatment” value is reported as “protection was similar”. The “Serum ALT” value in assay [6] (CO 250 ppm from 4 hr post APAP 500 mg/kg i.p., 20 hr after APAP, controls 622±44) is listed as 175±137. In assay [6] (CO 4 hours after APAP 500 mg/kg i.p.), the “Reduction in liver injury” value was 62%.
